From the NIST ThermoML archive (doi:10.1016/j.jct.2017.07.019) come the findings set out here.

Broadly, the vapor or sublimation pressure is the equilibrium pressure above the liquid or solid.

Numbers after ± are expanded uncertainties.

The conditions of this data set: Liquid, Ebulliometric method (Recirculating still).

As for `Cc1ccc(C)cc1` [1,4-dimethylbenzene], under “411.45 K”, the “vapor or sublimation pressure” value was 101.3 ± 0.7 kPa.

Take `O` [water]: the “vapor or sublimation pressure” value (373.05 K) was found to be 101.3 ± 0.6 kPa. On to `OCC(F)(F)C(F)F` [2,2,3,3-tetrafluoro-1-propanol], for which the “vapor or sublimation pressure” value (382.15 K) is given as 101.3 ± 0.6 kPa. With `ClC(Cl)Cl` [trichloromethane], the “vapor or sublimation pressure” value (334.35 K) is recorded as 101.3 ± 0.7 kPa.
